Test results reported in US20260083851A1 (AVILAR THERAPEUTICS, INC., priority 2022, published 2026).
pEC50, pKd: −log10 of the molar value. Where two headings read alike, the source gives them in different places.

Columns and labels:
[1] = target: T1, ASGPR (Homo sapiens, UniProt P07306); experiment: ASGPR SPR binding
T1 construct: biotin (biotinylated)
T1 sequence (P07306 1-291): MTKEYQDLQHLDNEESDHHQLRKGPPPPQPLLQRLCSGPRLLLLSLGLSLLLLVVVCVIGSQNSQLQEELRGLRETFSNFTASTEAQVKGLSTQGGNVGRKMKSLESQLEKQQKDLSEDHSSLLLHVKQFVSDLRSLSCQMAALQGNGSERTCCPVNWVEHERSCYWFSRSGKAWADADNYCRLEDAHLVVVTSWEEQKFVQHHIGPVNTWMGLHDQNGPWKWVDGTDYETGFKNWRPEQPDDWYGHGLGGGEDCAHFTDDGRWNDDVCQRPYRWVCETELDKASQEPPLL

[2] = target: IgG; experiment: IgG SPR binding; conditions: second table, read-out: IgG KD
[3] = target: T2, ASGPR receptor on HepG2 cells (ternary complex with AF488-labeled antibody) (Homo sapiens, UniProt P07306); experiment: Ternary complex formation assay (flow cytometry, cell-associated AF488 fluorescence); type: cell-based
T2 construct: host or cells: HepG2
T2 sequence (P07306 1-291): T1 sequence (P07306 1-291)
T2 sequence (P07307 1-311 partner): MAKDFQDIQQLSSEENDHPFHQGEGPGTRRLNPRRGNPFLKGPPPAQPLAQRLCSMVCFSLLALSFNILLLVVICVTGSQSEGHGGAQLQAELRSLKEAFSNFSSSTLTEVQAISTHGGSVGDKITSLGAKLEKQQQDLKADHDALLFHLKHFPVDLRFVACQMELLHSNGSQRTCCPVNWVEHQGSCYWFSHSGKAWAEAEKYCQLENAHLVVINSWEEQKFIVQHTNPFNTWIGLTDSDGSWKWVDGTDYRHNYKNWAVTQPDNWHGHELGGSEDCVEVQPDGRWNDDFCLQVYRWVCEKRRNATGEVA
Protocol: Human IgG (Sigma-Aldrich, 14506) was covalently labeled with Alexa Fluor 488 using the Alexa Fluor™ 488 Protein Labeling Kit (Thermo Fisher, A10235) following the manufacturer's instructions. HepG2 cells (ATCC, HB-8065) were cultured to about 70% confluence and harvested by trypsinization. Single cell suspensions of HepG2 cells were plated in 96 well plates at 1×10^5 cells/well in cell culture media (DMEM supplemented with 10% FBS) and placed at 4° C. For studies using human IgG, cells were incubated with 100 nM AF488-labeled anti-human IgG and serial dilutions of IgG-based degrader for 1 hour at 4° C. For studies using DNP, cells were incubated with 100 nM AF488-labeled polyclonal rabbit anti-dinitrophenyl (DNP) antibodies (ThermoFisher) and serial dilutions of DNP-based degrader for 1 hour at 4° C. After washing once with ice-cold PBS containing 0.1% BSA and 0.1% sodium azide, cells were resuspended in 150 uL PBS+0.1% BSA and cell-associated AF488 fluorescence was measured by flow cytometry using the iQue® Screener PLUS Flow Cytometer (IntelliCyt). […]

[4] = read-out: ASGPR KD, second table
[5] = read-out: TCF EC50, 100 nM AF488-labeled antibody, 1 hour at 4° C., the 25th table, class symbols
[6] = second table, read-out: ASGPR KD
[7] = 100 nM AF488-labeled antibody, 1 hour at 4° C., the 25th table, class symbols, read-out: TCF EC50

| pEC50 [3, 7] | Structure (SMILES) | pKd [1, 4] | pKd [2] | pEC50 [3, 5] | pKd [1, 6] | EC50 ([3]; read-out: TCF EC50, 100 nM AF488-labeled antibody, 1 hour at 4° C., the 25th table, numeric bounds, nM from footnote) |
| --- | --- | --- | --- | --- | --- | --- |
| – | CC(C)CC1NC(=O)C(Cc2cnc[nH]2)NC(=O)C(Cc2c[nH]c3ccccc23)NC(=O)C(C)NC(=O)C2CSSCC(NC(=O)C(Cc3c[nH]c4ccccc34)NC(=O)C(C(C)C)NC(=O)C(CC(C)C)NC(=O)C(CCC(=O)O)NC(=O)CNC1=O)C(=O)NC(C(C)O)C(=O)N1CCCC1C(=O)N1CC(NC(=O)CNC(COCCC(=O)NCC3OCC(Nc4cncc(C(F)(F)F)n4)C(O)C3O)COCCC(=O)NCC3OCC(Nc4cncc(C(F)(F)F)n4)C(O)C3O)CC1C(=O)NC(CC(=O)O)C(=O)N2 (stereo not drawn) [compound 41] | > 7.00 | > 7.00 | > 7.00 | – | – |
| – | CC(C)CC1NC(=O)C(Cc2cnc[nH]2)NC(=O)C(Cc2c[nH]c3ccccc23)NC(=O)C(C)NC(=O)C2CSSCC(NC(=O)C(Cc3c[nH]c4ccccc34)NC(=O)C(C(C)C)NC(=O)C(CC(C)C)NC(=O)C(CCC(=O)O)NC(=O)CNC1=O)C(=O)NC(C(C)O)C(=O)N1CCCC1C(=O)N1CC(NC(=O)c3ccc(N4CCC(CN5CCN(CC6OCC(Nc7cncc(C(F)(F)F)n7)C(O)C6O)CC5)CC4)nn3)CC1C(=O)NC(CC(=O)O)C(=O)N2 (stereo not drawn) [compound 42] | – | > 7.00 | > 7.00 | > 7.00 | – |
| – | CC(=O)NC1C(OCCOCCOCCOCCNC(=O)CCOCC(COCCC(=O)NCCOCCOCCOCCOC2OC(CO)C(O)C(O)C2NC(C)=O)(COCCC(=O)NCCOCCOCCOCCOC2OC(CO)C(O)C(O)C2NC(C)=O)NC(=O)CCCCCn2cc(CCCC(=O)NCCOCCOCCOCCOCCC(=O)NC3CC4C(=O)NC(CC(=O)O)C(=O)NC5CSSCC(NC(=O)C(Cc6c[nH]c7ccccc67)NC(=O)C(C(C)C)NC(=O)C(CC(C)C)NC(=O)C(CCC(=O)O)NC(=O)CNC(=O)C(CC(C)C)NC(=O)C(Cc6cnc[nH]6)NC(=O)C(Cc6c[nH]c7ccccc67)NC(=O)C(C)NC5=O)C(=O)NC(C(C)O)C(=O)N5CCCC5C(=O)N4C3)nn2)OC(CO)C(O)C1O (stereo not drawn) [compound 87] | < 6.00 | > 7.00 | < 6.00 | – | – |
| – | CC(C)CC1NC(=O)C(Cc2cnc[nH]2)NC(=O)C(Cc2c[nH]c3ccccc23)NC(=O)C(C)NC(=O)C2CSSCC(NC(=O)C(Cc3c[nH]c4ccccc34)NC(=O)C(C(C)C)NC(=O)C(CC(C)C)NC(=O)C(CCC(=O)N(C)C)NC(=O)CNC1=O)C(=O)NC(C(C)O)C(=O)N1CCCC1C(=O)N1CC(NC(=O)CNC(COCCC(=O)NCCOCCOCCOCCOCC3OCC(Nc4cncc(C(F)(F)F)n4)C(O)C3O)COCCC(=O)NCCOCCOCCOCCOCC3OCC(Nc4cncc(C(F)(F)F)n4)C(O)C3O)CC1C(=O)NC(CC(=O)O)C(=O)N2 (stereo not drawn) [compound 53] | > 7.00 | > 7.00 | > 7.00 | – | – |
| > 7.00 | CC(C)CC1NC(=O)C(Cc2cnc[nH]2)NC(=O)C(Cc2c[nH]c3ccccc23)NC(=O)C(C)NC(=O)C2CSSCC(NC(=O)C(Cc3c[nH]c4ccccc34)NC(=O)C(C(C)C)NC(=O)C(CC(C)C)NC(=O)C(CCC(=O)O)NC(=O)CNC1=O)C(=O)NC(C(C)O)C(=O)N1CCCC1C(=O)N1CC(NC(=O)CCOCCOCCOCCOCCNC(=O)CCCc3cn(CCCCCC(=O)NC(COCCC(=O)NCCOCCOCCOCCOCC4OCC(Nc5cncc(C(F)(F)F)n5)C(O)C4O)COCCC(=O)NCCOCCOCCOCCOCC4OCC(Nc5cncc(C(F)(F)F)n5)C(O)C4O)nn3)CC1C(=O)NC(CC(=O)O)C(=O)N2 (stereo not drawn) [compound 82] | – | > 7.00 | – | > 7.00 | – |
| > 7.00 | CC(C)CC1NC(=O)C(Cc2cnc[nH]2)NC(=O)C(Cc2c[nH]c3ccccc23)NC(=O)C(C)NC(=O)C2CSSCC(NC(=O)C(Cc3c[nH]c4ccccc34)NC(=O)C(C(C)C)NC(=O)C(CC(C)C)NC(=O)C(CCC(=O)O)NC(=O)CNC1=O)C(=O)NC(C(C)O)C(=O)N1CCCC1C(=O)N1CC(NC(=O)CCCc3cn(CCCCCC(=O)NC(COCCC(=O)NCCOCC4OCC(Nc5nccc(C(F)(F)F)n5)C(O)C4O)COCCC(=O)NCCOCC4OCC(Nc5nccc(C(F)(F)F)n5)C(O)C4O)nn3)CC1C(=O)NC(CC(=O)O)C(=O)N2 (stereo not drawn) [compound 76] | – | > 7.00 | – | > 7.00 | – |
| – | CC(C)CC1NC(=O)C(Cc2cnc[nH]2)NC(=O)C(Cc2c[nH]c3ccccc23)NC(=O)C(C)NC(=O)C2CSSCC(NC(=O)C(Cc3c[nH]c4ccccc34)NC(=O)C(C(C)C)NC(=O)C(CC(C)C)NC(=O)C(CCC(=O)O)NC(=O)CNC1=O)C(=O)NC(C(C)O)C(=O)N1CCCC1C(=O)N1CC(NC(=O)COc3ccc(CC(=O)NCC4OCC(Nc5cncc(C(F)(F)F)n5)C(O)C4O)cc3)CC1C(=O)NC(CC(=O)O)C(=O)N2 (stereo not drawn) [compound 37] | – | > 7.00 | > 7.00 | > 7.00 | – |
| – | CC(C)CC1NC(=O)C(Cc2cnc[nH]2)NC(=O)C(Cc2c[nH]c3ccccc23)NC(=O)C(C)NC(=O)C2CSSCC(NC(=O)C(Cc3c[nH]c4ccccc34)NC(=O)C(C(C)C)NC(=O)C(CC(C)C)NC(=O)C(CCC(=O)O)NC(=O)CNC1=O)C(=O)NC(C(C)O)C(=O)N1CCCC1C(=O)N1CC(NC(=O)c3ccc(C(=O)NCC4OCC(Nc5cncc(C(F)(F)F)n5)C(O)C4O)cc3)CC1C(=O)NC(CC(=O)O)C(=O)N2 (stereo not drawn) [compound 43] | – | > 7.00 | < 6.00 | > 7.00 | – |
| – | CC(C)CC1NC(=O)C(Cc2cnc[nH]2)NC(=O)C(Cc2c[nH]c3ccccc23)NC(=O)C(C)NC(=O)C2CSSCC(NC(=O)C(Cc3c[nH]c4ccccc34)NC(=O)C(C(C)C)NC(=O)C(CC(C)C)NC(=O)C(CCC(=O)O)NC(=O)CNC1=O)C(=O)NC(C(C)O)C(=O)N1CCCC1C(=O)N1CC(NC(=O)c3ccc(N4CCC(CN5CCN(CC6OCC(Nc7cncc(C(F)(F)F)n7)C(O)C6O)CC5)CC4)cc3)CC1C(=O)NC(CC(=O)O)C(=O)N2 (stereo not drawn) [compound 44] | – | > 7.00 | > 7.00 | > 7.00 | – |
| – | CC(C)CC1NC(=O)C(Cc2cnc[nH]2)NC(=O)C(Cc2c[nH]c3ccccc23)NC(=O)C(C)NC(=O)C2CSSCC(NC(=O)C(Cc3c[nH]c4ccccc34)NC(=O)C(C(C)C)NC(=O)C(CC(C)C)NC(=O)C(CCC(=O)O)NC(=O)CNC1=O)C(=O)NC(C(C)O)C(=O)N1CCCC1C(=O)N1CC(NC(=O)CCCc3cn(CC4OCC(Nc5cncc(C(F)(F)F)n5)C(O)C4O)nn3)CC1C(=O)NC(CC(=O)O)C(=O)N2 (stereo not drawn) [compound 78] | – | > 7.00 | > 7.00 | > 7.00 | – |
| > 7.00 | CC(C)CC1NC(=O)C(Cc2cnc[nH]2)NC(=O)C(Cc2c[nH]c3ccccc23)NC(=O)C(C)NC(=O)C2CSSCC(NC(=O)C(Cc3c[nH]c4ccccc34)NC(=O)C(C(C)C)NC(=O)C(CC(C)C)NC(=O)C(CCC(=O)O)NC(=O)CNC1=O)C(=O)NC(C(C)O)C(=O)N1CCCC1C(=O)N1CC(NC(=O)CCOCCOCCOCCOCCNC(=O)CCCc3cn(CCCCCC(=O)NC(COCCC(=O)NCCOCCOCCOCCOCC4OCC(Nc5nccc(C(F)(F)F)n5)C(O)C4O)(COCCC(=O)NCCOCCOCCOCCOCC4OCC(Nc5nccc(C(F)(F)F)n5)C(O)C4O)COCCC(=O)NCCOCCOCCOCCOCC4OCC(Nc5nccc(C(F)(F)F)n5)C(O)C4O)nn3)CC1C(=O)NC(CC(=O)O)C(=O)N2 (stereo not drawn) [compound 88] | – | > 7.00 | – | > 7.00 | – |
| – | CC(C)CC1NC(=O)C(Cc2cnc[nH]2)NC(=O)C(Cc2c[nH]c3ccccc23)NC(=O)C(C)NC(=O)C2CSSCC(NC(=O)C(Cc3c[nH]c4ccccc34)NC(=O)C(C(C)C)NC(=O)C(CC(C)C)NC(=O)C(CCC(=O)O)NC(=O)CNC1=O)C(=O)NC(C(C)O)C(=O)N1CCCC1C(=O)N1CC(NC(=O)C3CCC(C(=O)NCC4OCC(Nc5cncc(C(F)(F)F)n5)C(O)C4O)CC3)CC1C(=O)NC(CC(=O)O)C(=O)N2 (stereo not drawn) [compound 45] | – | > 7.00 | < 6.00 | 6.30 to 7.00 | – |
| – | CC(C)CC1NC(=O)C(Cc2cnc[nH]2)NC(=O)C(Cc2c[nH]c3ccccc23)NC(=O)C(C)NC(=O)C2CSSCC(NC(=O)C(Cc3c[nH]c4ccccc34)NC(=O)C(C(C)C)NC(=O)C(CC(C)C)NC(=O)C(CCC(=O)O)NC(=O)CNC1=O)C(=O)NC(C(C)O)C(=O)N1CCCC1C(=O)N1CC(NC(=O)c3ccc(-c4ccc(C(=O)NCC5OCC(Nc6cncc(C(F)(F)F)n6)C(O)C5O)cc4)cc3)CC1C(=O)NC(CC(=O)O)C(=O)N2 (stereo not drawn) [compound 49] | – | > 7.00 | – | > 7.00 | > 686 nM |
